Measured values from PMC6120666 (The EMBO Journal, 2018).

Experiments:
Test in all cases: Drug affinity chromatography with c-ponatinib and LC-MS/MS (ponatinib interactome)
Type in all cases: binding
[1] = target: T1, proteins of U2OS cell lysate (Homo sapiens, UniProt Q9H2K8); settings: TAOK3;TAOK1;TAOK2, Serine/threonine-protein kinase TAO3
T1 construct: Proteins enriched by c-ponatinib from U2OS cell lysate; endogenous in cells; host or cells: U2OS cell lysate
In short: (§1)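 U2OS cell lysate in NP-40 lysis buffer (2 mg protein per pulldown) was incubated with amine-derivatized NHS beads for 2 h at 4 °C. Bound proteins were washed, eluted with 100 mM formic acid, reduced, alkylated and trypsin-digested, then identified by nano-UPLC–MS/MS on Orbitrap instruments with a 60 min gradient.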

[2] = target: T2, proteins of U2OS cell lysate (Homo sapiens, UniProt P51617); settings: IRAK1, Interleukin-1 receptor-associated kinase 1
T2 construct: Proteins enriched by c-ponatinib from U2OS cell lysate; endogenous in cells; host or cells: U2OS cell lysate
In short: as §1

[3] = target: T3, proteins of U2OS cell lysate (Homo sapiens, UniProt P07947); settings: YES1, Tyrosine-protein kinase Yes
T3 construct: Proteins enriched by c-ponatinib from U2OS cell lysate; endogenous in cells; host or cells: U2OS cell lysate
T3 sequence (P07947 whole entry): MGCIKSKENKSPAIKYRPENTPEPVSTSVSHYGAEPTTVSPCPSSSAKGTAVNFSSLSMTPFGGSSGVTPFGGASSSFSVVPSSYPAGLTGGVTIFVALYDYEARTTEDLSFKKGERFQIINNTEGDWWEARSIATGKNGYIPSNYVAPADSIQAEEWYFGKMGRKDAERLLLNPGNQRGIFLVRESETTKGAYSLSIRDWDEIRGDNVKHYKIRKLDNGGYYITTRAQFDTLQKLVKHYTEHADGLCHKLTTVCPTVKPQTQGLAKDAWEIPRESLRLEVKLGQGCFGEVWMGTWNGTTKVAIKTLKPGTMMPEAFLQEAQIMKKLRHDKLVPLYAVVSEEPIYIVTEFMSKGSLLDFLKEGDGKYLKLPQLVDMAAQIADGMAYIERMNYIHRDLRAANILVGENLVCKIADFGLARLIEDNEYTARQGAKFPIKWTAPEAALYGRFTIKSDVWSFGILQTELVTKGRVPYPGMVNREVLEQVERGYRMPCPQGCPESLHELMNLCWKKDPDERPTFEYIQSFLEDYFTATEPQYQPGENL
In short: as §1

[4] = target: T4, proteins of U2OS cell lysate (Homo sapiens, UniProt P08195); settings: SLC3A2, 4F2 cell-surface antigen heavy chain
T4 construct: Proteins enriched by c-ponatinib from U2OS cell lysate; endogenous in cells; host or cells: U2OS cell lysate
T4 sequence (P08195 102-630): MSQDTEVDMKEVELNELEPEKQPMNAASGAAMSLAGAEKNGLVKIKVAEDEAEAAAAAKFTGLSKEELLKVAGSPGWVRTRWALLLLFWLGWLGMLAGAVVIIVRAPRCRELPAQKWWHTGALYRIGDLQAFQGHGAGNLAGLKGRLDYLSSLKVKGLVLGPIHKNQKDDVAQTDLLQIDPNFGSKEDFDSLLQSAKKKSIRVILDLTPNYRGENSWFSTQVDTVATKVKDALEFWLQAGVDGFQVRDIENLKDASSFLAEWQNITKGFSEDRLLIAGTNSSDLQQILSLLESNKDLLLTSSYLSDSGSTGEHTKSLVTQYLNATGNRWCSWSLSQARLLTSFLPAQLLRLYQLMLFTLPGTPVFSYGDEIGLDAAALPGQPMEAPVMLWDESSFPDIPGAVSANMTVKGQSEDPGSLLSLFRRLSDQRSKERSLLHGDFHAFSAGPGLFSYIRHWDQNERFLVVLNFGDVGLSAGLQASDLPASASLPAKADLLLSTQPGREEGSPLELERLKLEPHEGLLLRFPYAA
In short: as §1

[5] = target: T5, proteins of U2OS cell lysate (Homo sapiens, UniProt P33991); settings: MCM4, DNA replication licensing factor MCM4
T5 construct: Proteins enriched by c-ponatinib from U2OS cell lysate; endogenous in cells; host or cells: U2OS cell lysate
T5 sequence (P33991 whole entry): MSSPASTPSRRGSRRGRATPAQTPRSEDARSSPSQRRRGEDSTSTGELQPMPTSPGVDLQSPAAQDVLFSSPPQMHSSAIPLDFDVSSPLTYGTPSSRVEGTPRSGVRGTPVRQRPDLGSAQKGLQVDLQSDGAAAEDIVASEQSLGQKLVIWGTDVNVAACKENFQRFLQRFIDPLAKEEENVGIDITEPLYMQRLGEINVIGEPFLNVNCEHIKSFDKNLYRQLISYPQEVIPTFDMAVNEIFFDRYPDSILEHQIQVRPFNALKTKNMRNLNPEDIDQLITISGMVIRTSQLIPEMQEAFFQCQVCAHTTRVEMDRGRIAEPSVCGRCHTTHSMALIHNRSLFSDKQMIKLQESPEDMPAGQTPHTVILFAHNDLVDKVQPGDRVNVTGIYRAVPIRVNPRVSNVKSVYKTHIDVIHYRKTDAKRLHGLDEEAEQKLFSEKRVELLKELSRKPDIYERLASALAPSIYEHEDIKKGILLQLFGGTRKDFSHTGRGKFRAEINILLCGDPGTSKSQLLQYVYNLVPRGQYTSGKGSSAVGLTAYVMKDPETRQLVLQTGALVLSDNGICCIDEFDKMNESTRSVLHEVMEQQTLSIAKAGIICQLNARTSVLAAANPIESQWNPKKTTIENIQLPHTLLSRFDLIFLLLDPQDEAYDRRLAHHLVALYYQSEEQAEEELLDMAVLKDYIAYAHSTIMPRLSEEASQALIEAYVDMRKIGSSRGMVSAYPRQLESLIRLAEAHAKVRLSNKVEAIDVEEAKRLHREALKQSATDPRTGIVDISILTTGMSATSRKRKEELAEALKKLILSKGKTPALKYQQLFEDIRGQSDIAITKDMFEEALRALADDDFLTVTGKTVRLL
In short: as §1

[6] = target: T6, proteins of U2OS cell lysate (Homo sapiens, UniProt P62820); settings: RAB1A;RAB1B, Ras-related protein Rab-1A
T6 construct: Proteins enriched by c-ponatinib from U2OS cell lysate; endogenous in cells; host or cells: U2OS cell lysate
T6 sequence (P62820 whole entry): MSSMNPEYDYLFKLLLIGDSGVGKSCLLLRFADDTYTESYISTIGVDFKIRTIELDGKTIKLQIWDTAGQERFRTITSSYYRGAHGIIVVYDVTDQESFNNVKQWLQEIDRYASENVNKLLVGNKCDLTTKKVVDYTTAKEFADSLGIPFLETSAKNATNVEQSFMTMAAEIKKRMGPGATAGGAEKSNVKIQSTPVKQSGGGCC
In short: as §1

[7] = target: T7, proteins of U2OS cell lysate (Homo sapiens, UniProt O43809); settings: NUDT21, Cleavage and polyadenylation specificity factor subunit 5
T7 construct: Proteins enriched by c-ponatinib from U2OS cell lysate; endogenous in cells; host or cells: U2OS cell lysate
T7 sequence (O43809 whole entry): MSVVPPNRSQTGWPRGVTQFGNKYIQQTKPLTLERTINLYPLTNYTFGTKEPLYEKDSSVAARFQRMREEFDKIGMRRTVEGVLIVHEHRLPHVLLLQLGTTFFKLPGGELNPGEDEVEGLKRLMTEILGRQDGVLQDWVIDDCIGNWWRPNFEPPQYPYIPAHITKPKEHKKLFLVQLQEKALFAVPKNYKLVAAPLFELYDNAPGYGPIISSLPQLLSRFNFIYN
In short: as §1

[8] = target: T8, proteins of U2OS cell lysate (Homo sapiens, UniProt O95232); settings: LUC7L3, Luc7-like protein 3
T8 construct: Proteins enriched by c-ponatinib from U2OS cell lysate; endogenous in cells; host or cells: U2OS cell lysate
In short: as §1

[9] = target: T9, proteins of U2OS cell lysate (Homo sapiens, UniProt P62241); settings: RPS8, 40S ribosomal protein S8
T9 construct: Proteins enriched by c-ponatinib from U2OS cell lysate; endogenous in cells; host or cells: U2OS cell lysate
In short: as §1

[10] = target: T10, proteins of U2OS cell lysate (Homo sapiens, UniProt P49368); settings: CCT3, T-complex protein 1 subunit gamma
T10 construct: Proteins enriched by c-ponatinib from U2OS cell lysate; endogenous in cells; host or cells: U2OS cell lysate
In short: as §1

[11] = target: T11, proteins of U2OS cell lysate (Homo sapiens, UniProt Q9Y5L0); settings: TNPO3, Transportin-3
T11 construct: Proteins enriched by c-ponatinib from U2OS cell lysate; endogenous in cells; host or cells: U2OS cell lysate
T11 sequence (Q9Y5L0 whole entry): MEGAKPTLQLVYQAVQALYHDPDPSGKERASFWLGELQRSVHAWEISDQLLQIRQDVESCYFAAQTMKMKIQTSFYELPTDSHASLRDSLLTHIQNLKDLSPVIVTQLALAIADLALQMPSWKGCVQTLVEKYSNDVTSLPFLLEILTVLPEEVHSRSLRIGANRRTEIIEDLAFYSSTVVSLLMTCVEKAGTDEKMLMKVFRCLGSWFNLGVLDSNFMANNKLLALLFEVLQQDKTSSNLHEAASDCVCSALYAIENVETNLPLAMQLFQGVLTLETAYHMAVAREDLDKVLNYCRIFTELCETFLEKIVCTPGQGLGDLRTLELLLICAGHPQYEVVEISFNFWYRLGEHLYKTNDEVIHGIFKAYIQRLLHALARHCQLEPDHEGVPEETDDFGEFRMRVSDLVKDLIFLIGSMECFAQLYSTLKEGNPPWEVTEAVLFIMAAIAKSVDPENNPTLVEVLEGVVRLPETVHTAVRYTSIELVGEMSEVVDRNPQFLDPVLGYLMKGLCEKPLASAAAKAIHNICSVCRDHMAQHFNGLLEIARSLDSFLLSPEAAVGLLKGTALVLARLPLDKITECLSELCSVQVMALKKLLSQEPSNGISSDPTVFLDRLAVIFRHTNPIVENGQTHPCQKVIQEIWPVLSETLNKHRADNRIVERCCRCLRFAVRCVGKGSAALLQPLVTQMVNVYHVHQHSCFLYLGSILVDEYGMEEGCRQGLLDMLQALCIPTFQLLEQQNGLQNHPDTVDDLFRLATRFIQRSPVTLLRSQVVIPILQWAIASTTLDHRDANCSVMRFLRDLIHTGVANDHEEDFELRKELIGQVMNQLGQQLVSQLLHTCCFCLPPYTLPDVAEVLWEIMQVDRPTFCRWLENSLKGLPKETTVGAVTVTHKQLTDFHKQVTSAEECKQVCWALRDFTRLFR
In short: as §1

[12] = target: T12, proteins of U2OS cell lysate (Homo sapiens, UniProt Q14152); settings: EIF3A, Eukaryotic translation initiation factor 3 subunit A
T12 construct: Proteins enriched by c-ponatinib from U2OS cell lysate; endogenous in cells; host or cells: U2OS cell lysate
T12 sequence (Q14152 whole entry): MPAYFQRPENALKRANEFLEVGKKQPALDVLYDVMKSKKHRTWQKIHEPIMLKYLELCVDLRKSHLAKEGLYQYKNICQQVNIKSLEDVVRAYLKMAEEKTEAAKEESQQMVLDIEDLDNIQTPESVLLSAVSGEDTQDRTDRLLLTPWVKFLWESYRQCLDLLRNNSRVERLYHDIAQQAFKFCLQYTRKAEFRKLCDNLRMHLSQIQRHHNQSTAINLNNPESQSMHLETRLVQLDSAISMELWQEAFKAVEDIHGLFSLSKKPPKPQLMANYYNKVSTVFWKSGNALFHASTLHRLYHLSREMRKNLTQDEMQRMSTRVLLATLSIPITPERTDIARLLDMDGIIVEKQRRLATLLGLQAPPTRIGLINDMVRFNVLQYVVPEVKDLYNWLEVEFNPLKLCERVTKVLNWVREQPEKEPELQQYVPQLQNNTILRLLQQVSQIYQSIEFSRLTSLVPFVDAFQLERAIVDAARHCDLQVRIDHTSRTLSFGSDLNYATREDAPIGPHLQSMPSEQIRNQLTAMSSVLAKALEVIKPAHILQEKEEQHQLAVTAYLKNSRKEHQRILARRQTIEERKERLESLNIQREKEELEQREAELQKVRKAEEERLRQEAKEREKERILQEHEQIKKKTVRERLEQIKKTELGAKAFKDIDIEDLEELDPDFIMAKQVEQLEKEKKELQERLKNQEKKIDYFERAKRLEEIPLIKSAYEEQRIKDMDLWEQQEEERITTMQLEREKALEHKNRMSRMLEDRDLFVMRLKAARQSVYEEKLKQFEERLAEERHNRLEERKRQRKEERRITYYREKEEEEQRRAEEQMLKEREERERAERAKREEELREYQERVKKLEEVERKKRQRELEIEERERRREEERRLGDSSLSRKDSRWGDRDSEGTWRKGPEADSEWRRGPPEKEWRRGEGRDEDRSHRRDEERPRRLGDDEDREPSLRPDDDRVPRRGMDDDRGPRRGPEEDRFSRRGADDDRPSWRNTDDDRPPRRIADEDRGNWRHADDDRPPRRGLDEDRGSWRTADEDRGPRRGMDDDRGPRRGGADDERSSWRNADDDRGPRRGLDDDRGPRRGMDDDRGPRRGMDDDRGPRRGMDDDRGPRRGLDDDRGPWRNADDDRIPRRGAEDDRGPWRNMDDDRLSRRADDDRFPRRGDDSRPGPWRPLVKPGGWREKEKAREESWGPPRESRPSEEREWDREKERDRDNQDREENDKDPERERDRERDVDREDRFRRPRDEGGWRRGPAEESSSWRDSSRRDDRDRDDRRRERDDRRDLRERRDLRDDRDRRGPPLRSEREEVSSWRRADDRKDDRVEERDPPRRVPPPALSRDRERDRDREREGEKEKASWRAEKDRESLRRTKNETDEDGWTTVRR
In short: as §1

[13] = target: T13, proteins of U2OS cell lysate (Homo sapiens, UniProt P06576); settings: ATP5B, ATP synthase subunit beta, mitochondrial
T13 construct: Proteins enriched by c-ponatinib from U2OS cell lysate; endogenous in cells; host or cells: U2OS cell lysate
In short: as §1

[14] = target: T14, proteins of U2OS cell lysate (Homo sapiens, UniProt P51572); settings: BCAP31, B-cell receptor-associated protein 31
T14 construct: Proteins enriched by c-ponatinib from U2OS cell lysate; endogenous in cells; host or cells: U2OS cell lysate
In short: as §1

[15] = target: T15, proteins of U2OS cell lysate (Homo sapiens, UniProt Q9NYJ8); settings: TAB2, TGF-beta-activated kinase 1 and MAP3K7-binding protein 2
T15 construct: Proteins enriched by c-ponatinib from U2OS cell lysate; endogenous in cells; host or cells: U2OS cell lysate
In short: as §1

[16] = target: T16, proteins of U2OS cell lysate (Homo sapiens, UniProt P54760); settings: EPHB4, Ephrin type-B receptor 4
T16 construct: Proteins enriched by c-ponatinib from U2OS cell lysate; endogenous in cells; host or cells: U2OS cell lysate
In short: as §1

[17] = target: T17, proteins of U2OS cell lysate (Homo sapiens, UniProt P29692); settings: EEF1D, Elongation factor 1-delta
T17 construct: Proteins enriched by c-ponatinib from U2OS cell lysate; endogenous in cells; host or cells: U2OS cell lysate
In short: as §1

[18] = target: T18, proteins of U2OS cell lysate (Homo sapiens, UniProt P49792); settings: RANBP2, E3 SUMO-protein ligase RanBP2
T18 construct: Proteins enriched by c-ponatinib from U2OS cell lysate; endogenous in cells; host or cells: U2OS cell lysate
In short: as §1

[19] = target: T19, proteins of U2OS cell lysate (Homo sapiens, UniProt P60660); settings: MYL6, Myosin light polypeptide 6
T19 construct: Proteins enriched by c-ponatinib from U2OS cell lysate; endogenous in cells; host or cells: U2OS cell lysate
T19 sequence (P60660 whole entry): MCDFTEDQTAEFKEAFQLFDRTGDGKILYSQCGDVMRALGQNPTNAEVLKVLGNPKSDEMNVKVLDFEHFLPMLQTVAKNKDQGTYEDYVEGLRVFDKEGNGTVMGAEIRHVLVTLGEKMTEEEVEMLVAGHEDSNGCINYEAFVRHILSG
In short: as §1

## Cc1ccc(C(=O)Nc2ccc(CN3CCN(C)CC3)c(C(F)(F)F)c2)cc1C#Cc1cnc2cccnn12 [PON]
[1]
  Average LFQ PON_WT: 21.1056
[2]
  Average LFQ PON_WT: 23.3938
[3]
  Average LFQ PON_WT: 25.9404
[4]
  Average LFQ PON_WT: 18.7801
[5]
  Average LFQ PON_WT: 19.8468
[6]
  Average LFQ PON_WT: 23.3468
[7]
  Average LFQ PON_WT: 20.8271
[8]
  Average LFQ PON_WT: 20.3652
[9]
  Average LFQ PON_WT: 19.8524
[10]
  Average LFQ PON_WT: 23.8873
[11]
  Average LFQ PON_WT: 20.3086
[12]
  Average LFQ PON_WT: 21.466
[13]
  Average LFQ PON_WT: 26.0565
[14]
  Average LFQ PON_WT: 23.9511
[15]
  Average LFQ PON_WT: 24.3605
[16]
  Average LFQ PON_WT: 25.577
[17]
  Average LFQ PON_WT: 24.6531
[18]
  Average LFQ PON_WT: 18.8692
[19]
  Average LFQ PON_WT: 23.7934
